In publication PMC4550478, “Metronidazole-triazole conjugates: Activity against Clostridium difficile and parasites” (European Journal of Medicinal Chemistry, 2015):
≈ marks a conversion by molar mass, not a printed value.

Key:
[1] = test system: ESKAPE bacteria: S. aureus MRSA (ATCC 43300), E. coli (ATCC 25922), K. pneumoniae (ATCC 700603), A. baumannii (ATCC 19606) and P. aeruginosa (ATCC 27853); experiment: MIC against ESKAPE pathogens, aerobic; assay type: cell-based; settings: aerobic conditions, single concentration screen, n = 3
Experimental: All compounds were tested for activity against a set of anaerobic C. difficile bacteria (630 ATCC BAA-1382, NAP1/027 M7404, NAP1/027 ATCC BAA-1803, VPI10463 ATCC 43255, CD26A54_S and CD26A54_R) and representative ESKAPE pathogens S. aureus (MRSA ATCC 43300), E. coli (ATCC 25922), K. pneumoniae (ATCC 700603), A. baumannii (ATCC 19606) and P. aeruginosa (ATCC 27853) using a standard broth microdilution assay. Selected compounds were tested for activity against H. pylori strains (26695, and clinical isolates MtzS 13/25, MtzR 98/285 and MtzR 13/61) using agar plate dilution, and for antimicrobial activity against twelve Gram-positive bacterial strains: Enterococcus faecalis (VanA clinical isolate), Enterococcus faecium (MDR VanA ATCC 51559), Streptococcus pneumoniae (MDR ATCC 700677), S. aureus (MRSA ATCC 43300, MRSA clinical isolate, MRSA/DRSA clinical isolate, GISA NARSA NRS 1, GISA NARSA NRS 17, VRSA NARSA VRS1, VRSA NARSA VRS4 and VRSA NARSA VRS10) using broth microdilution. C. difficile strains were grown at 37 °C in a COY anaerobic chamber (5% H2, 10% CO2, 85% N2). H. pylori strains were grown at 37 °C under a microaerobic atmosphere (5% O2, 10% CO2). All facultative anaerobic bacteria were grown at 37 °C with normal atmospheric oxygen levels. […] Positive growth control of bacteria and DMSO as well as a negative control of only media were included for every plate. Full assay details are provided in the supplementary information.
MICs were determined by a two-fold serial broth micro dilution according to the recommendation of CLSI standards with an inoculum of 5 × 10^5 CFU/mL^4 The compounds along with standard antibiotics were serially diluted twofold across the wells of 96-well non-binding surface plates (NBS, Corning). […] Gram-positive and Gram-negative bacteria were cultured in Mueller Hinton broth (MHB) (Bacto laboratories, Cat. no. 211443) at 37 °C overnight. A sample of each culture was then diluted 40-fold in fresh MHB broth and incubated at 37 °C for 2-3 h. The resultant mid-log phase cultures were diluted to the final concentration of 5 × 10^5 CFU/mL, then 50 μL was added to each well of the compound containing 96-well plates. All the plates were covered and incubated at 37 °C for 24 h.

[2] = Cytotoxicity, resazurin, HepG2; assay type: cell-based; settings: human
Experimental: (§1) Compounds were tested for cytotoxicity against mammalian HepG2 and HEK293 cell lines, as detailed in the supplementary information.
(§2) HEK293 and HepG2 cells were seeded as 3000 and 5000 cells per well in 384-well plates, respectively. Cells were cultured in DMEM with 1% FBS for 24 hours at 37 °C, 5% CO2. Then a dilution series of compounds was added into each well, with the highest concentration of 100 µM. […] After 24 hours incubation with the compounds, 5 µM resazurin were added into each well and incubated at 37 °C for 2 hours. As a negative control, 1% Triton X-100 was added into the culture media to lyse all the cells. The fluorescence intensity was read using Polarstar Omega with excitation/emission 560/590. The data was analysed by GraphPad Prism software. Results are presented as the average percentage of control ± SD using the following equation: Percentage of Growth = (FITEST – FINegative/FIUNTREATED –FINegative)*100.

[3] = Cytotoxicity, resazurin, HEK293; assay type: cell-based; settings: human
Experimental: as §1, §2

[4] = test system: C. difficile NAP1/027 ATCC BAA-1803; experiment: Metronidazole E-test on BAKHS, C. difficile ATCC BAA-1803; assay type: cell-based, Clostridium difficile; settings: Clostridioides difficile, ATCCBAA1803, BAKHS agar
Experimental: Mid-log phase (OD600 =0.5- 0.6) culture was diluted to a 0.5 McFarland standard (OD600~ 0.1) in prereduced broth. The diluted culture was inoculated onto duplicate BAKHS agar plate using a cotton tip applicator. The inoculum was allowed to dry before the Metronidazole E-test strip (Metronidazole MZH 256-S30, bioMérieux Australia) was placed in duplicate on the surface of the agar. The agar plate was inverted and incubated for up to 96 hr. The MIC was read as the point at which the elliptical zone of inhibition intercepted the E-test strip at 24, 48 and 96 hr.

Compound | MIC ESKAPE bacteria [1] [µg/mL] | CC50 at 24 h ([2]; no cytotoxicity up to 100 μM, 24 hours incubation, read-out: CC50 HepG2) [µM] | CC50 at 24 h ([3]; no cytotoxicity up to 100 μM, 24 hours incubation, read-out: CC50 HEK293) [µM] | MIC ([4]; 24 hrs) [µg/mL] | MIC ([4]; 48 hrs) [µg/mL] | MIC ([4]; 96 hrs) [µg/mL] | CC50 at 24 h [2] [µM] | CC50 at 24 h [3] [µM]
Cc1ncc([N+](=O)[O-])n1CCN=[N+]=[N-] [Compound 3, 1-(2-azidoethyl)-2-methyl-5-nitro-1H-imidazole] | >32 | > 100 | > 100 |  |  |  |  | 
Cc1ncc([N+](=O)[O-])n1CCO [Compound 1, metronidazole] | >32 |  |  | 2 (≈ 11.7 µM) | 2 (≈ 11.7 µM) | 2 (≈ 11.7 µM) | > 100 | > 100
